“Also recorded” adds a separate entry of the source. Where two headings read alike, the source gives them in different places.
Assays:
[1] = test system: TDP43 granules in U2OS cells stably expressing tGFP tagged human TDP-43; experiment: TDP43 granule formation inhibition in TDP43-tGFP-U2OS cells after sodium arsenite treatment; format: cell-based; conditions: for TDP43 granule formation inhibition in cells after arsenite treatment (overall result): 24 h pre-incubation, 1-10 μM, 250 μM sodium arsenite 120 min
Excerpt: Amyotrophic lateral sclerosis (ALS) is one of the most common degenerative diseases of the motor neuron system. TDP-43 related pathologies seem to be a dominant type of pathologies across sporadic ALS types. A novel fluorescence cell-based assay for High Content Screening that allows the quantification of pathological TDP43 granules has been developed. In this work we have used this model to screen the effects of three compounds, using Riluzole as a positive control. The TDP-43 U2OS cell line contains U2OS cells stably expressing the tGFP tagged human TDP-43. This cell line has been designed to test compounds and to analyse their capability to modulate TDP43 granule formation after cytotoxic stress induction. The cell line was generated in Innoprot. It is a stable cell line that express the LacRI repressor protein and the TDP43-turboGFP protein. The cell line was generated using the pCMVLacRI-Hygro plasmid (Hygromycin resistance) and the pPuro-TDP43tGFP plasmid (that confers the puromycin resistance). The cell line was generated transfecting these plasmids with Lipofectamine LTX reagent, and the transfected cells were diluted until critical dilution. The negative control show a diffuse nuclear distribution of the fluorescence, but after sodium arsenite treatment the phenotype turns into a cytosolic vesicular pattern corresponding to stress granules and into an intensive nuclear granules pattern. The aim of this work was to assess different doses of 11 compounds.
The objective of these experiments was to screen the protective effect of 11 compounds and reference compound (arimoclomol) against cellular oxidative stress induced by sodium arsenite (i.e., arsenite). The compounds have been tested at 10 μM, […], 2 μM and 1 μM each, and appropriate controls (vehicle, arsenite and controls) have been included as well. The compound tested were the following: 101, 102, 103, 104, 105, 106, 107, 201, 202, 203 and 204.
Each compound was prepared in Optimem. In the final dilution, DMSO was added in order to obtain a final DMSO concentration of 0.1$, the same that the reference compound (arimoclomol). All compounds were tested at 0.1% DMSO (vehicle) final concentration.
Day 1 (Thursday). Recombinant TDP43-tGFP-U2OS cell line was thawed (2×10^6 cells per T75). Day 2 (Friday). After 24 hours, Cells were maintained in DMEM-F12 supplemented with 10% FBS at 37° C. in a humidified 5% CO2 atmosphere. Day 5 (Monday). Cells were plated in coated 96-well plates with a number of 10.000 cells (+/−2000 cells) per well. Cells were maintained in DMEM-F12 medium supplemented with 10% FBS for 24 h at 37° C. in a humidified 5% CO2 atmosphere. Day 6 (Tuesday). Cells were incubated with test compounds and IPTG 1 mM in triplicate assays during 24 hours. Day 7 (Wednesday). Culture medium was replaced, and cells were treated with 250 μM of sodium arsenite during 120 min and TDP-43 globs formation was quantified in both cell cytoplasm and cell nucleus. The TDP43 granules formation was quantified after the formaldehyde fixation (3.7 wt. %, 20 minutes) of the cells. The nuclei were stained using DAPI (2 μg/ml) and the fluorescence was measured using a Cell Insight High-Content Bioimager from Thermofisher. To detect the DAPI, the filters used were 380/10 and 460/10 nm for excitation and emission, respectively and to detect the TDP43 granules, the filters were 488/20 and 520/20 nm, respectively. The images were obtained with an objective of 20×, taking 9 pictures of each well. Cell quantification was performed delimitating the region of interest of the nuclei (stained with DAPI) and after quantification, the average of each triplicate was performed. Granule quantification was also performed using the Thermofisher Cellomics Scan Viewer 6.1.1. Spot detector application from Cell Software delimitated 2 regions of interest, the nuclei and cytosol. This software application quantified the number of granules per nuclei and the average granule number per cytosol of each well was calculated. […]

TDP-43307-319 WT peptide [2] = biological target: T1, TDP-43307-319 WT peptide (Homo sapiens, UniProt Q13148); experiment: IM-MS monitoring of oligomerization of TDP-43307-319 (recovery study on aggregated peptide); format: biochemical; conditions: for oligomer distribution initially after addition of inhibitor to aggregated WT peptide: initial time point; for remodeling of developed higher-order oligomers and prevention of re-formation (overall): recovery study on aggregated peptide; for oligomer distribution a week after single treatment: one week; for rate of redistribution relative to the other inhibitors: recovery study, comparison among molecules
T1 construct: TDP-43307-319 WT peptide 307 [MGGGMNF GAFSIN]319; made in house; host or cells: chemical synthesis (Fmoc solid phase peptide synthesis), not recombinant
Experimental: Peptide Synthesis and Purification. TDP-43307-319 WT peptide 307 [MGGGMNF GAFSIN]319 was synthesized using standard 9-fluorenylmethoxycarbonyl (Fmoc) chemistry using 2-(1H-benzotriazol-1-yl)-1,1,3,3-tetramethyluronium hexafluorophosphate/hydroxy-benzotriazole (HBTU/HOBT) manual solid phase peptide synthesis. The peptide was amidated with an Fmoc-Rink Amide resin (Anaspec). The peptide was cleaved from the resin using 94% TFA, 5% triisopropylsilane, and 1% phenol for 2 h at 295 K. The crude peptide was purified by reverse phase high performance liquid chromatography (RP-HPLC) on a semipreparative C18 column (Phenomenex) using gradients of water [0.1% (v/v) TFA] and acetonitrile [0.1% (v/v) TFA]. The peptide was dissolved in 6 M guanidine hydrochloride (GdnHCl) prior to injection due to its insolubility in water and acetonitrile. The peptide purity was >93% as determined by analytical RP-HPLC. The molecular mass of the peptide was verified by ESI mass spectrometry.
IM-MS was utilized to monitor the oligomerization of TDP-43307-319 in the presence of molecules AC0107, AC0105, AC0102 and AC0201. The ability of IMMS to separate species of a specific [m]z+ (m=mass, z=charge) that contains different [n]z+ (n=oligomer number) by measuring the arrival time distributions (ATDs) yields oligomeric distributions. Samples were prepared as mentioned previously and incubated at room temperature under quiescent conditions.
The TDP-43307-319 WT peptide was dissolved in 10 mM ammonium acetate (pH 7.4) with 2% HFIP to a final peptide concentration of 100 μM. The sample was incubated at room temperature under quiescent conditions for 4 h to develop higher-order oligomers. Two dominant mass/charge (m/z) peaks were always present in the mass spectra corresponding to [n]Z+=[1]1+ and [1]2+. […] After incubation at room temperature for 4 h, the distribution shifted toward the higher-order oligomers. […] Once the presence of higher-order oligomers was confirmed, an inhibitor (either [AC0107], [AC0105], [AC0102], [AC0201] or [AC0202]) was added in a 1:1 peptide (100 μM): inhibitor (100 μM) molar ratio. Subsequent time points were taken to monitor the remodeling properties of the inhibitors.

TDP-43307-319 WT peptide [3] = biological target: T1, TDP-43307-319 WT peptide; experiment: as above; format: biochemical; conditions: 100 μM peptide
[4] = Homo sapiens, U2OS, normalized to sodium arsenite and vehicle, read-out: maximum stress granule inhibition in cytosol
[5] = 1:1 peptide (100 μM): inhibitor (100 μM), added after 4 h aggregation

Compound	TDP43 granule formation inhibition in cells after arsenite treatment (overall result) [1]	inhibition at 10 µM [1, 4]	oligomer distribution initially after addition of inhibitor to aggregated WT peptide (TDP-43307-319 WT peptide [2]; 1:1, 100 μM each)	remodeling of developed higher-order oligomers and prevention of re-formation (overall) (TDP-43307-319 WT peptide [2])	also measured
N#Cc1cccc(CNCc2ccc(CN3CCOCC3)cc2)c1 [AC0104, 3-[({[4-(morpholin-4 ylmethyl)phenyl]methyl}amino)methyl]benzonitrile]	mildly active	–	–	–	–
CC(=O)Nc1ccc(CNCCc2cccc(Cl)c2)cc1 [AC0101, N-[4-({[2-(3-chlorophenyl)ethyl]amino}methyl)phenyl]acetamide]	positive	44%	–	–	inhibition at 5 µM ([1]; Homo sapiens, U2OS, at 5 μM, normalized to sodium arsenite and vehicle, read-out: maximum stress granule inhibition in nucleus): 62.5%
N#Cc1ccc(CNCc2cccc(CN3CCCC3)c2)cc1 [AC0107, 4-[({[3-(pyrrolidin-1-ylmethyl)phenyl]methyl}amino)methyl]benzonitrile]	–	–	initial increase in the number of higher-order oligomers	able to remodel the developed higher-order oligomers and prevent the re-formation of these toxically related species	time by which redistribution to mostly monomer and dimer is seen (TDP-43307-319 WT peptide [2]; 1:1, 100 μM each): ≥ 3 h; complexation between WT peptide and molecule in mass spectra (TDP-43307-319 WT peptide [2]; [5]): no complexation; level of aggregation (signal-to-noise ratio, baseline, [1]1+ peak) after addition of inhibitor (TDP-43307-319 WT peptide [2]; [5]): level of aggregation was reduced
CN(C)C(=O)C(c1ccccc1)N1CCN(c2ccc(O)cc2)CC1 (stereo not shown) [AC0103, 2-[4-(4-hydroxyphenyl)piperazin-1-yl]-N,N-dimethyl-2 phenylacetamide]	positive	47.2%	–	–	–
CC(C)C(NCc1ccccc1)c1cccc(C=O)c1 (stereo not shown) [AC0201, 3-[1-(benzylamino)-2-methylpropyl]benzaldehyde]	–	–	immediately pushed the bulk of the distribution back to monomer, dimer, and trimer	successfully redistributed the oligomers to monomer and was able to prevent the re-formation of higher-order oligomers	oligomer distribution at 3-24 h (TDP-43307-319 WT peptide [2]; 1:1, 100 μM each, 3-24 h after addition): dominated by monomer and dimer; oligomer distribution a week after single treatment (TDP-43307-319 WT peptide [2]; 1:1, 100 μM each): dominate monomer peak was observed; rate of redistribution relative to the other inhibitors (TDP-43307-319 WT peptide [2]): fastest and most efficient redistribution; redistribution of oligomers at 10:1 peptide:inhibitor molar ratio (TDP-43307-319 WT peptide [3]; 10 μM inhibitor): takes a longer time to dissociate oligomers to mostly monomer; also recorded: very effective inhibitor; also recorded: effective; redistribution of oligomers at 4:1 peptide:inhibitor molar ratio (TDP-43307-319 WT peptide [3]; 25 μM inhibitor): effective at redistributing and maintaining the population of lower-order oligomers; redistribution of oligomers at 2:1 peptide:inhibitor molar ratio (TDP-43307-319 WT peptide [3]; 50 μM inhibitor): effective at redistributing and maintaining the population of lower-order oligomers
CN(C)Cc1ccc(CNCc2ccc3c(c2)OCCO3)cc1 [AC0102, (2,3-dihydro-1,4-benzodioxin-6-ylmethyl)({4 [(dimethylamino)-methyl]phenyl}methyl)amine]	positive	36.9%	shift toward higher-order oligomers	able to remodel the developed higher-order oligomers and prevent the re-formation of these toxically related species	inhibition at 10 µM ([1]; Homo sapiens, U2OS, normalized to sodium arsenite and vehicle, read-out: maximum stress granule inhibition in nucleus): 27.7%; oligomer distribution after 1 h (TDP-43307-319 WT peptide [2]; 1:1, 100 μM each, 1 h after addition): remnants of higher-order oligomers are present; oligomer distribution at later time points (TDP-43307-319 WT peptide [2]; 1:1, 100 μM each, later time points): composed primarily of monomer and dimer; rate of redistribution relative to the other inhibitors (TDP-43307-319 WT peptide [2]): slower rate
N#Cc1ccc(CNCc2ccc(CN3CCCC3)cc2)cc1 [AC0105, 4-[({[4-(pyrrolidin-1 ylmethyl)phenyl]methyl}amino)methyl]benzonitrile]	mildly active	–	immediate dissociation of higher-order oligomers into monomer and dimer	able to remodel the developed higher-order oligomers and prevent the re-formation of these toxically related species	oligomer distribution a week after single treatment (TDP-43307-319 WT peptide [2]; 1:1, 100 μM each): maintained for a week
